Here are results for 16 molecules from patent US12673942B2, “Azabicyclyl-substituted heterocycles as fungicides” (Bayer Aktiengesellschaft, priority 2020, dated 2026).

A short description of data set [1]: Measurement of Log P values by HPLC on reversed phase columns (EEC directive 79/831 Annex V.A8). The class given is physicochemical. As to the method: Measurement of Log P values as provided herein was performed according to EEC directive 79/831 Annex V.A8 by HPLC (High Performance Liquid Chromatography) on reversed phase columns with the following methods: • ^[a] Log P value is determined by measurement of LC-UV, in an acidic range, with 0.1% formic acid in water and acetonitrile as eluent (linear gradient from 10% acetonitrile to 95% acetonitrile). • ^[b] Log P value is determined by measurement of LC-UV, in a neutral range, with 0.001 molar ammonium acetate solution in water and acetonitrile as eluent (linear gradient from 10% acetonitrile to 95% acetonitrile). • ^[c] Log P value is determined by measurement of LC-UV, in an acidic range, with 0.1% phosphoric acid and acetonitrile as eluent (linear gradient from 10% acetonitrile to 95% acetonitrile).
If more than one Log P value is available within the same method, all the values are given and separated by “+”. […]

For data set [2], the system named is Pyricularia oryzae. The data set can be described thus: microbe, parasite or virus in culture. The class given is cell-based. To be noted: 120 h, read-out: efficacy (inhibition of fungal growth).
Data set [3] relates to Fusarium culmorum. The data set can be described thus: Fusarium culmorum in vitro cell test. The class given is cell-based. To be noted: 96 h, 20 ppm of active ingredient, liquid culture, 4 days incubation, read-out: efficacy (inhibition of fungal growth). As to the method: • Solvent: DMSO • Culture medium: 14.6 g anhydrous D-glucose (VWR), 7.1 g Mycological Peptone (Oxoid), 1.4 g granulated Yeast Extract (Merck), QSP 1 liter • Inoculum: spore suspension
Fungicides were solubilized in DMSO and the solution used to prepare the required range of concentrations. The final concentration of DMSO used in the assay was ≤1%.
A spore suspension of Fusarium culmorum was prepared and diluted to the desired spore density.
(§1) Fungicides were evaluated for their ability to inhibit spore germination and mycelium growth in liquid culture assay. The compounds were added in the desired concentration to the culture medium with spores. After 4 days incubation, fungi-toxicity of compounds was determined by spectrometric measurement of mycelium growth. Inhibition of fungal growth was determined by comparing the absorbance values in wells containing the fungicides with the absorbance in control wells without fungicides.

Data set [4] concerns Alternaria alternata. Briefly: Alternaria alternata in vitro cell test. The class given is cell-based. To be noted: 120 h, 20 ppm of active ingredient, liquid culture, 5 days incubation, read-out: efficacy (inhibition of fungal growth). As to the method: as §1, with “• Solvent: […] Fungicides were solubilized in DMSO and the solution used to prepare the required range of concentrations. The final concentration of DMSO used in the assay was ≤1%. A spore suspension of Alternaria alternata was prepared and diluted to the desired spore density. Fungicides” for “Fungicides”, “5” for “4”

Data set [5] concerns Colletotrichum lindemuthianum. Briefly: Colletotrichum lindemuthianum in vitro cell test. To be noted: 144 h, 20 ppm of active ingredient, liquid culture, 6 days incubation, read-out: efficacy (inhibition of fungal growth). The class given is cell-based. As to the method:
as §1, with “• Solvent: […] Fungicides were solubilized in DMSO and the solution used to prepare the required range of concentrations. The final concentration of DMSO used in the assay was 1%. A spore suspension of Colletotrichum lindemuthianum was prepared and diluted to the desired spore density. Fungicides” for “Fungicides”, “6” for “4”

The test system of data set [6] is Septoria tritici. The data set can be described thus: Septoria tritici in vitro cell test. The class given is cell-based. To be noted: Zymoseptoria tritici, 168 h; 20 ppm of active ingredient; liquid culture, 7 days incubation; read-out: efficacy (inhibition of fungal growth). As for the experimental part: • Solvent: DMSO • Culture medium: 1 g KH2PO4 (VWR), 1 g K2HPO4 (VWR), 0.5 g Urea (VWR), 3 g KNO3 (Prolabo), 10 g saccharose (VWR), 0.5 g MgSO4, 7H2O (Sigma), 0.07 g CaCl2, 2H2O (Prolabo), 0.2 mg MnSO4, H2O (Sigma), 0.6 mg CuSO4, 5H2O (Sigma), 7.9 mg ZnSO4, 7H2O (Sigma), 0.1 mg H3BO3 (Merck), 0.14 mg NaMoO4, 2H2O (Sigma), 2 mg thiamine (Sigma), 0.1 mg biotine (VWR), 4 mg FeSO4, 7H2O (Sigma), QSP 1 liter • Inoculum: spore suspension Fungicides were solubilized in DMSO and the solution used to prepare the required range of concentrations. The final concentration of DMSO used in the assay was 1%. A spore suspension of Septoria tritici was prepared and diluted to the desired spore density. Fungicides were evaluated for their ability to inhibit spore germination and mycelium growth in liquid culture assay. The compounds were added in the desired concentration to the culture medium with spores. […] Inhibition of fungal growth was determined by comparing the absorbance values in wells containing the fungicides with the absorbance in control wells without fungicides.

The mark [7] stands for this setting: method [a]: LC-UV, acidic range, 0.1% formic acid in water and acetonitrile as eluent.

The chromatographic logP is lipophilicity estimated from chromatographic retention. Low values mean a more hydrophilic compound, high ones a more lipophilic compound. Broadly, the inhibition is how much of the control response was suppressed. As for `Cc1cccc(Oc2nnc3ccccc3c2C2=NOCC(Cc3ccc(C)cc3C)N2)c1` (racemic) [Compound I-001, 4-[(5RS)-5-(2,4-dimethylbenzyl)-5,6-dihydro-4H-1,2,4-oxadiazin-3-yl]-3-(3-methylphenoxy)cinnoline], the chromatographic logP in data set [1] (setting [7]) stood at 3.85. The inhibition at 20 ppm in data set [2], in data set [3], in data set [4] and in data set [5] was at least 70% each time.

In data set [1] (setting [7]), `Cc1ccc(CC2CON=C(c3c(Oc4cccc(Cl)c4)nnc4ccccc34)N2)c(C)c1` (racemic) [Compound I-002, 3-(3-chlorophenoxy)-4-[(5RS)-5-(2,4-dimethylbenzyl)-5,6-dihydro-4H-1,2,4-oxadiazin-3-yl]cinnoline] came in with a chromatographic logP of 3.96. The inhibition at 20 ppm in data set [2], in data set [3], in data set [4] and in data set [5] was at least 70% each time.

With `Cc1ccc(C[C@@H]2CON=C(c3c(Oc4cccc(C5CC5)c4)nnc4ccccc34)N2)c(C)c1` (racemic) [Compound I-003], in data set [1] (setting [7]), the chromatographic logP is 4.11. The inhibition at 20 ppm in data set [2], in data set [3], in data set [4] and in data set [5] was at least 70% throughout.

Take `Cc1ccc(C[C@@H]2CON=C(c3c(Oc4cccc(C(F)(F)F)c4)cnc4ccccc34)N2)c(C)c1` (racemic) [Compound I-004]: the chromatographic logP in data set [1] (setting [7]) turned out to be 4.19. The inhibition at 20 ppm in data set [2], in data set [3], in data set [4] and in data set [5] was at least 70% in each case.

With `Cc1ccc(C[C@@H]2CON=C(c3c(Oc4cccc(C(F)(F)F)c4)nnc4cc(C)ccc34)N2)c(C)c1` (racemic) [Compound I-005], the chromatographic logP in data set [1] (setting [7]) came to 4.32; in data set [1] (method [b]: LC-UV, neutral range, 0.001 molar ammonium acetate solution in water and acetonitrile as eluent) it was 4.27. For the same molecule, the inhibition at 20 ppm in data set [2], in data set [3], in data set [4] and in data set [5] was at least 70% throughout.

In data set [1] (setting [7]), `Cc1ccc(CC2CON=C(c3c(Oc4cccc(C5CC5)c4F)nnc4ccccc34)N2)c(C)c1` (racemic) [Compound I-006, 3-(3-cyclopropyl-2-fluorophenoxy)-4-[(5RS)-5-(2,4-dimethylbenzyl)-5,6-dihydro-4H-1,2,4-oxadiazin-3-yl]cinnoline] yielded a chromatographic logP of 4.37. Also, the inhibition at 20 ppm in data set [2], in data set [3], in data set [6], in data set [4] and in data set [5] was at least 70% throughout.

In data set [1] (setting [7]), `FC(F)(F)c1cccc(Oc2nnc3ccccc3c2C2=NOC[C@@H](Cc3ccc(Br)cc3Cl)N2)c1` (racemic) [Compound I-007] registered a chromatographic logP of 4.44. The inhibition at 20 ppm in data set [2], in data set [3], in data set [6], in data set [4] and in data set [5] was at least 70% each time.

With `C=Cc1ccc(C[C@@H]2CON=C(c3c(Oc4cccc(C(F)(F)F)c4)nnc4ccccc34)N2)c(Cl)c1` (racemic) [Compound I-009], the chromatographic logP in data set [1] (setting [7]) stood at 4.44. Moreover, the inhibition at 20 ppm in data set [2], in data set [3], in data set [6], in data set [4] and in data set [5] was at least 70% in each case.

`Cc1ccc(CC2CN=C(c3c(Oc4cccc(C(F)(F)F)c4)cnc4ccccc34)N2)c(C)c1` (racemic) [Compound I-011, 4-[(5RS)-5-(2,4-dimethylbenzyl)-4,5-dihydro-1H-imidazol-2-yl]-3-[3-(trifluoromethyl)phenoxy]quinoline] gave a chromatographic logP in data set [1] (setting [7]) of 2.57. The inhibition at 20 ppm in data set [2], in data set [4] and in data set [5] was at least 70% throughout.

`Cc1ccc(C[C@@H]2CN=C(c3c(Oc4cccc(Cl)c4)nnc4ccccc34)N2)c(C)c1` (racemic) [Compound I-012]: the chromatographic logP in data set [1] (setting [7]) is 2.46. Also, the inhibition at 20 ppm in data set [2], in data set [4] and in data set [5] was at least 70% throughout.

Turning to `Cc1ccc(C[C@@H]2CON=C(c3c(Oc4cccc(C(F)(F)F)c4)cnc4ccoc34)N2)c(C)c1` (racemic) [Compound I-013], the chromatographic logP in data set [1] (setting [7]) amounted to 3.96. For the same molecule, the inhibition at 20 ppm in data set [2], in data set [3], in data set [6], in data set [4] and in data set [5] was at least 70% each time.

Take `Cc1ccc(C[C@@H]2CON=C(c3c(Oc4cccc(C5CC5)c4F)cnc4nccnc34)N2)c(C)c1` (racemic) [Compound I-014]: in data set [1] (setting [7]), the chromatographic logP came to 3.5. Also, the inhibition at 20 ppm in data set [3], in data set [6], in data set [4] and in data set [5] was at least 70% throughout.

Molecule `FC(F)(F)c1cccc(Oc2cnc3ccccc3c2C2=NC[C@@H](Cc3ccc(Cl)cc3)N2)c1` (racemic) [Compound I-015] gave a chromatographic logP in data set [1] (setting [7]) of 2.46. Besides, the inhibition at 20 ppm in data set [2], in data set [3], in data set [6], in data set [4] and in data set [5] was at least 70% each time.

In data set [1] (setting [7]), `C#Cc1cccc(Oc2cnc3ccccc3c2C2=NOC[C@@H](Cc3ccc(C)cc3C)N2)c1` (racemic) [Compound I-016] gave a chromatographic logP of 4.05. For the same molecule, the inhibition at 20 ppm in data set [2], in data set [3], in data set [6], in data set [4] and in data set [5] was at least 70% each time.

In turn, `Cc1ccc(C[C@@H]2CON=C(c3c(Oc4cccc(C5CC5)c4F)cnc4ccccc34)N2)c(C)c1` (racemic) [Compound I-017] yielded a chromatographic logP in data set [1] (setting [7]) of 4.51. In addition, the inhibition at 20 ppm in data set [2], in data set [3], in data set [6], in data set [4] and in data set [5] was at least 70% in each case.

For the molecule `C=Cc1cccc(Oc2cnc3ccccc3c2C2=NOC[C@@H](Cc3ccc(C)cc3C)N2)c1` (racemic) [Compound I-018], the chromatographic logP in data set [1] (setting [7]) stood at 4.23. Also, the inhibition at 20 ppm in data set [2], in data set [3], in data set [6], in data set [4] and in data set [5] was at least 70% in each case.
